From ChEMBL document CHEMBL3639107, “Dioxa-bicyclo[3.2.1]octane-2,3,4-triol derivatives” (2014)
Values joined by “and” are separate entries in the source; they are usually repeats but may differ in a detail not shown here. Equal values may be shown once.

Molecular target: T1, Sodium/glucose cotransporter 2 (Homo sapiens, UniProt P31639)
T1 sequence (P31639 whole entry): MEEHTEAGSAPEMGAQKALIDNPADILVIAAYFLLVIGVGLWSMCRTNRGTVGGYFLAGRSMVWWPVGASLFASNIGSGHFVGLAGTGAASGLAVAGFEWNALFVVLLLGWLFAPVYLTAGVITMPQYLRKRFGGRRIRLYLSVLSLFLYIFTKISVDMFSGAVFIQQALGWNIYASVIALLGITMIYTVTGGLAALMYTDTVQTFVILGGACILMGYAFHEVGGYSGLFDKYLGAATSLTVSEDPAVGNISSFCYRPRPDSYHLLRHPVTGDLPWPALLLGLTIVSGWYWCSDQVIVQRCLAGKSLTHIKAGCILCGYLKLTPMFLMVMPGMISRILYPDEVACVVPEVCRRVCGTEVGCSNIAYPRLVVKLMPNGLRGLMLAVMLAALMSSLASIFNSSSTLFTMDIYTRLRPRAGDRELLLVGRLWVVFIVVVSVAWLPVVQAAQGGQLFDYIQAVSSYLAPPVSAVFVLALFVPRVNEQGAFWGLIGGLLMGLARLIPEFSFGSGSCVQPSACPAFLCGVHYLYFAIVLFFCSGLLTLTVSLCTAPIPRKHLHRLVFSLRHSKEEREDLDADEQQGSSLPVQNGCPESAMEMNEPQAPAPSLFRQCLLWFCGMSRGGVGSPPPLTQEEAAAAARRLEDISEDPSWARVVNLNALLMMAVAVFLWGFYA
Assay: Biological Assays: The SGLT2 functional assay was designed to detect the inhibition of methyl-alpha-D glucopyranoside (AMG a non-metabolizable form of glucose) uptake via the SGLT2 transporter. The SGLT2 transporter recovers glucose from the proximal tubules of the kidney; its inhibition results in sugar wasted in the urine. The positive control compound, Phlorizin, is a known inhibitor of glucose uptake for SGLT2 and was used for comparing the high percent effect of SGLT2 inhibition of the test compounds.

IC50: 5 nM and 6.7 nM
Compound: CCOc1ccc(Cc2cc([C@]34OC[C@](COC(C)=O)(O3)[C@@H](O)[C@H](O)[C@H]4O)ccc2Cl)cc1
